Among the data in US12024531B2, “Immunoproteasome inhibitors” (Principia Biopharma Inc., priority 2017, dated 2024) are IC50 values, retold here.

Common to all, as to format: biochemical
Assay [1] deals with immunoproteasome LMP7/B5i subunit (Homo sapiens, UniProt P28062). The experiment in a line: Caliper-based proteasome enzymatic activity assay, LMP7. The conditions noted are these: human recombinant immunoproteasome 0.3 nM, FAM peptide substrate 1 μM, rt 3 h.
Assay [2] addresses immunoproteasome LMP2 subunit (Homo sapiens, UniProt P28065). The experiment in a line: Caliper-based proteasome enzymatic activity assay, LMP2. To be noted: human recombinant immunoproteasome 0.3 nM, FAM peptide substrate 1 μM, rt 2 h.
Assay [3] addresses constitutive proteasome β5c subunit (Homo sapiens, UniProt P28074). The experiment in a line: Caliper-based proteasome enzymatic activity assay, β5c. To be noted: human recombinant constitutive proteasome 0.3 nM, FAM peptide substrate 1 μM, rt 3 h.

`CN(C(=O)C(C#N)=Cc1cccc(CCOC(=O)N[C@@H](Cc2ccccc2)B(O)O)c1)C(C)(C)C` [Example 71, (R)-(1-(((3-(3-(tert-butyl(methyl)amino)-2-cyano-3-oxoprop-1-en-1-yl)phenethoxy)carbonyl)amino)-2-phenylethyl)boronic Acid]: the IC50 stood at 0.9 nM in assay [1], 2010 nM in assay [2] and 2420 nM in assay [3].

Regarding `N#CC(=Cc1cccc(CCOC(=O)N[C@@H](Cc2ccccc2)B(O)O)c1)C(=O)N(C1CCOCC1)C1CCOCC1` [Example 72, (R)-(1-(((3-(3-(bis(tetrahydro-2H-pyran-4-yl)amino)-2-cyano-3-oxoprop-1-en-1-yl)phenethoxy)carbonyl)amino)-2-phenylethyl)boronic Acid], the IC50 in assay [1] is 1.4 nM; in assay [2], over 5000 nM; in assay [3], over 5000 nM.

Consider `N#CC(=Cc1cccc(CCNC(=O)N[C@@H](Cc2ccccc2)B(O)O)c1)c1ccc(C(F)(F)F)cn1` [Example 73, (R)-(1-(3-(3-(2-cyano-2-(5-(trifluoromethyl)pyridin-2-yl)vinyl)phenethyl)ureido)-2-phenylethyl)boronic Acid], for which the IC50 came to 66.4 nM in assay [1], 2000 nM in assay [2] and 1900 nM in assay [3].

Consider `N#CC(=Cc1cc(CO)cc(CCOC(=O)N[C@@H](Cc2ccccc2)B(O)O)c1)c1ccccn1` [Example 76, (R)-(1-(((3-(2-cyano-2-(pyridin-2-yl)vinyl)-5-(hydroxymethyl)phenethoxy)carbonyl)amino)-2-phenylethyl)boronic Acid], for which the IC50 was 3.2 nM in assay [1], over 5000 nM in assay [2] and 3410 nM in assay [3].

In the case of `Cc1ccc(C[C@H](NC(=O)NCCc2cccc(C=C(C#N)c3ccccn3)c2)B(O)O)cc1` [Example 77, (R)-(1-(3-(3-(2-cyano-2-(pyridin-2-yl)vinyl)phenethyl)ureido)-2-(p-tolyl)ethyl)boronic Acid], the figures for the IC50 in assay [1], in assay [2] and in assay [3] were 42 nM, over 5000 nM and 2150 nM, respectively.

Consider `N#CC(=Cc1cccc(CCOC(=O)N[C@@H](Cc2ccccc2)B(O)O)c1)c1ccc(C#N)cn1` [Example 78, (R)-(1-(((3-(2-cyano-2-(5-cyanopyridin-2-yl)vinyl)phenethoxy)carbonyl)amino)-2-phenylethyl)boronic Acid], for which the figures for the IC50 in assay [1], in assay [2] and in assay [3] were 1.6 nM, 690 nM and 390 nM, respectively.

With `CC1(C)COCCN1C(=O)C(C#N)=Cc1cccc(CCOC(=O)N[C@@H](Cc2ccccc2)B(O)O)c1` [Example 79, (R)-(1-(((3-(2-cyano-3-(3,3-dimethylmorpholino)-3-oxoprop-1-en-1-yl)phenethoxy)carbonyl)amino)-2-phenylethyl)boronic Acid], the IC50 turned out to be 0.9 nM in assay [1], 1600 nM in assay [2] and 998 nM in assay [3].

Consider `Cc1ccc(C[C@H](NC(=O)NCCc2cccc(C=C(C#N)c3ccc(C(F)(F)F)cn3)c2)B(O)O)cc1` [Example 80, (R)-(1-(3-(3-(2-cyano-2-(5-(trifluoromethyl)pyridin-2-yl)vinyl)phenethyl)ureido)-2-(p-tolyl)ethyl)boronic Acid], for which the IC50 in assay [1] is 43 nM; in assay [2] it was over 5000 nM; in assay [3], 2570 nM.

`Cc1ccc(C[C@H](NC(=O)OCCc2cccc(C=C(C#N)c3ccc(C(F)(F)F)cn3)c2)B(O)O)cc1` [Example 81, (R)-(1-(((3-(2-cyano-2-(5-(trifluoromethyl)pyridin-2-yl)vinyl)phenethoxy)carbonyl)amino)-2-(p-tolyl)ethyl)boronic Acid]: the IC50 in assay [1] came out at 5.2 nM; in assay [2], 2830 nM; in assay [3] it was 438 nM.

For the compound `CCN(CC)C(=O)C(C#N)=Cc1cccc(CCNC(=O)N[C@@H](Cc2ccc(C)cc2)B(O)O)c1` [Example 82, (R)-(1-(3-(3-(2-cyano-3-(diethylamino)-3-oxoprop-1-en-1-yl)phenethyl)ureido)-2-(p-tolyl)ethyl)boronic Acid], the IC50 in assay [1] is 24 nM; in assay [2] it was over 5000 nM; in assay [3], over 5000 nM.

For the compound `Cc1ccc(C[C@H](NC(=O)NCCc2cccc(C=C(C#N)c3ncccn3)c2)B(O)O)cc1` [Example 83, (R)-(1-(3-(3-(2-cyano-2-(pyrimidin-2-yl)vinyl)phenethyl)ureido)-2-(p-tolyl)ethyl)boronic Acid], the IC50 in assay [1] is 37 nM; in assay [2], over 5000 nM; in assay [3], 1970 nM.

In the case of `Cn1cnc(C(C#N)=Cc2cccc(CCOC(=O)N[C@@H](Cc3ccccc3)B(O)O)c2)cc1=O` [Example 84, (R)-(1-(((3-(2-cyano-2-(1-methyl-6-oxo-1,6-dihydropyrimidin-4-yl)vinyl)phenethoxy)carbonyl)amino)-2-phenylethyl)boronic Acid], the IC50 was 1.9 nM in assay [1], 2020 nM in assay [2] and 240 nM in assay [3].

In the case of `Cc1ccc(C[C@H](NC(=O)OCCc2cccc(C=C(C#N)C(=O)N3[C@H](C)COC[C@H]3C)c2)B(O)O)cc1` [Example 85, ((R)-1-(((3-(2-cyano-3-((3R,5R)-3,5-dimethylmorpholino)-3-oxoprop-1-en-1-yl)phenethoxy)carbonyl)amino)-2-(p-tolyl)ethyl)boronic Acid], the IC50 in assay [1] is 1.1 nM; in assay [2] it was over 5000 nM; in assay [3], 1170 nM.

On to `CCN(CC)C(=O)C(C#N)=Cc1cccc(CCOC(=O)N[C@@H](Cc2ccc(Cl)cc2)B(O)O)c1` [Example 86, (R)-(2-(4-chlorophenyl)-1-(((3-(2-cyano-3-(diethylamino)-3-oxoprop-1-en-1-yl)phenethoxy)carbonyl)amino)ethyl)boronic Acid], for which the values for the IC50 in assay [1], in assay [2] and in assay [3] were 0.9 nM, over 5000 nM and 779 nM, respectively.

In the case of `Cc1ccc(C[C@H](NC(=O)OCCc2cccc(C=C(C#N)c3ncccn3)c2)B(O)O)cc1` [Example 87, (R)-(1-(((3-(2-cyano-2-(pyrimidin-2-yl)vinyl)phenethoxy)carbonyl)amino)-2-(p-tolyl)ethyl)boronic Acid], the IC50 in assay [1] is 1.6 nM; in assay [2], over 5000 nM; in assay [3] it was 197 nM.

Take `CCN(C(=O)C(C#N)=Cc1cccc(CCOC(=O)N[C@@H](Cc2ccc(C)cc2)B(O)O)c1)C1CCOCC1` [Example 88, (R)-(1-(((3-(2-cyano-3-(ethyl(tetrahydro-2H-pyran-4-yl)amino)-3-oxoprop-1-en-1-yl)phenethoxy)carbonyl)amino)-2-(p-tolyl)ethyl)boronic Acid]: the IC50 in assay [1] was 1.2 nM; in assay [2], over 5000 nM; in assay [3], 802 nM.

In the case of `Cc1ccc(C[C@H](NC(=O)OCCc2cccc(C=C(C#N)C(=O)N3C4CCC3COC4)c2)B(O)O)cc1` [Example 89, ((1R)-1-(((3-(3-(3-oxa-8-azabicyclo[3.2.1]octan-8-yl)-2-cyano-3-oxoprop-1-en-1-yl)phenethoxy)carbonyl)amino)-2-(p-tolyl)ethyl)boronic Acid], the concentration for half-maximal inhibition (IC50) in assay [1] is 0.5 nM; in assay [2] it was over 5000 nM; in assay [3] it was 869 nM.

On to `CCN(C)C(=O)C(C#N)=Cc1cccc(CCOC(=O)N[C@@H](Cc2ccccc2)B(O)O)c1` [Example 90, (R)-(1-(((3-(2-cyano-3-(ethyl(methyl)amino)-3-oxoprop-1-en-1-yl)phenethoxy)carbonyl)amino)-2-phenylethyl)boronic Acid], for which the IC50 in assay [1] is 4.6 nM; in assay [2], over 5000 nM; in assay [3], over 5000 nM.

As usually defined, the IC50 is the midpoint of a concentration-inhibition curve.
